Where two headings read alike, the source gives them in different places.
Columns and labels:
Assay type in all cases: in vivo
[1] = test system: sedge, umbrella (small-flower umbrella sedge, Cyperus difformis); assay: Test B flooded paddy test; conditions: 250 g ai/ha, Flood, visual rating on scale of 0 to 100 where 0 is no effect and 100 is complete control, 13 to 15 d after treatment; for pest or weed control at 250 g/ha: Cyperus difformis, 360 h, read-out: Plant response rating, Sedge, Umbrella
In short: (§1)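 Ratings use a 0-100 visual scale, where 100 is complete control, and compare treated plants with controls after 13 to 15 d of greenhouse growth. Compound went straight into paddy water kept 3 cm over the soil surface, applied to seedlings at the 2-leaf stage.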

[2] = test system: barnyardgrass (Echinochloa crus-galli); assay: Test B flooded paddy test; conditions: 250 g ai/ha, Flood, visual rating on scale of 0 to 100 where 0 is no effect and 100 is complete control, 13 to 15 d after treatment; for pest or weed control at 250 g/ha: Echinochloa crus-galli, 360 h, read-out: Plant response rating, Barnyardgrass
In short: as §1

rice (Oryza sativa) = assay: Test B flooded paddy test; conditions: 250 g ai/ha, Flood, visual rating on scale of 0 to 100 where 0 is no effect and 100 is complete control, 13 to 15 d after treatment; for plant injury at 250 g/ha: Oryza sativa, 360 h, read-out: Plant response rating, Rice
In short: as §1

[3] = test system: ducksalad (Heteranthera limosa); assay: Test B flooded paddy test; conditions: 250 g ai/ha, Flood, visual rating on scale of 0 to 100 where 0 is no effect and 100 is complete control, 13 to 15 d after treatment; for pest or weed control at 250 g/ha: Heteranthera limosa, 360 h, read-out: Plant response rating, Ducksalad
In short: as §1

[4] = test system: galium (catchweed bedstraw, Galium aparine); assay: Test A greenhouse herbicide test, postemergence; conditions: for pest or weed control at 125 g/ha / pest or weed control at 500 g/ha: Galium, post-emergence, 240 h; for pest or weed control at 125 g/ha: read-out: Plant response rating, Galium; for pest or weed control at 500 g/ha: 0 is no effect, 100 is complete control, read-out: Galium plant response rating
In short: (§2)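 Scores are visual injury ratings from 0 (no effect) to 100 (complete control) versus untreated plants, taken roughly 10 d after treatment in the greenhouse. Treatment was postemergence, on one- to two-leaf plants 2–10 cm high growing in a loam soil/sand mix.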

[5] = test system: blackgrass (Alopecurus myosuroides); assay: Test A greenhouse herbicide test, postemergence; conditions: for pest or weed control at 125 g/ha / pest or weed control at 500 g/ha: Alopecurus myosuroides, post-emergence, 240 h; for pest or weed control at 125 g/ha: read-out: Plant response rating, Blackgrass; for pest or weed control at 500 g/ha: 0 is no effect, 100 is complete control, read-out: Blackgrass plant response rating
In short: as §2

[6] = test system: barnyardgrass (Echinochloa crus-galli); assay: Test A greenhouse herbicide test, pre- and postemergence; conditions: for pest or weed control at 125 g/ha / pest or weed control at 500 g/ha: Echinochloa crus-galli, 240 h
In short: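 Visual injury ratings, 0 (no effect) to 100 (complete control), versus untreated plants after roughly 10 d in a greenhouse. Compounds, formulated in a surfactant-containing non-phytotoxic solvent, were sprayed on loam–sand soil after sowing (pre) or on one- to two-leaf plants 2–10 cm tall (post).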

kochia (Kochia scoparia) = assay: Test C greenhouse herbicide test, postemergence
Source text: (§3) At the same time, plants selected from these crop and weed species and also chickweed (common chickweed, Stellaria media), kochia (Kochia scoparia), and oat, wild (wild oat, Avena fatua), were planted in pots containing Redi-Earth® planting medium (Scotts Company, 14111 Scottslawn Road, Marysville, Ohio 43041) comprising spaghnum peat moss, vermiculite, wetting agent and starter nutrients and treated with postemergence applications of test chemicals formulated in the same manner. Plants ranged in height from 2 to 18 cm (1- to 4-leaf stage) for postemergence treatments. Treated plants and controls were maintained in a greenhouse for 13 to 15 d, after which time all species were compared to controls and visually evaluated. Plant response ratings, summarized in Table C, are based on a scale of 0 to 100 where 0 is no effect and 100 is complete control. A dash (-) response means no test result.

[7] = test system: oat, wild (wild oat, Avena fatua); assay: Test C greenhouse herbicide test, postemergence
Source text: as §3

[8] = 125 g ai/ha, visual rating after approx. 10 d, 0 to 100 scale (0 no effect, 100 complete control)
[9] = post-emergence, Postemergence, 125 g ai/ha, visual rating after approx. 10 d, 0 to 100 scale (0 no effect, 100 complete control), read-out: Plant response rating, Barnyardgrass
[10] = post-emergence, Postemergence, 500 g ai/ha, 0 to 100 scale, 0 is no effect, 100 is complete control, read-out: Barnyardgrass plant response rating
[11] = pre-emergence, Preemergence, 125 g ai/ha, 0 to 100 scale where 0 is no effect and 100 is complete control, read-out: Barnyardgrass plant response rating
[12] = pre-emergence, Preemergence, 500 g ai/ha, 0 to 100 scale, 0 no effect, 100 complete control, read-out: Plant response rating, Barnyardgrass
[13] = 125 g ai/ha, 0 to 100 scale, 0 no effect, 100 complete control
[14] = 500 g ai/ha, visual rating after approx. 10 d, 0 to 100 scale (0 no effect, 100 complete control)
[15] = Postemergence, 500 g ai/ha, visual rating after approx. 10 d, 0 to 100 scale (0 no effect, 100 complete control)
[16] = Preemergence, 500 g ai/ha, 0 to 100 scale where 0 is no effect and 100 is complete control
[17] = 125 g ai/ha, 0 to 100 scale where 0 is no effect and 100 is complete control
[18] = Postemergence, 125 g ai/ha, 0 to 100 scale where 0 is no effect and 100 is complete control
[19] = Preemergence, 125 g ai/ha, 0 to 100 scale where 0 is no effect and 100 is complete control
[20] = Postemergence, 31 g ai/ha, scale 0 to 100 (0 no effect, 100 complete control)
[21] = Postemergence, 62 g ai/ha, 0 to 100 scale (0 no effect, 100 complete control)
[22] = Postemergence, 250 g ai/ha, scale 0 to 100, 0 no effect, 100 complete control, 13 to 15 d
[23] = postemergence, 125 g ai/ha, scale 0 to 100, 0 no effect, 100 complete control

Cc1ccc2oc(C)c(-c3c(OC(=O)C(C)(C)C)c(C)nn(C)c3=O)c2c1 [Compound 17, 5-(2,5-dimethyl-3-benzofuranyl)-1,6-dihydro-1,3-dimethyl-6-oxo-4-pyridazinyl 2,2-dimethylpropanoate]
pest or weed control at 250 g/ha [1]: 0% | pest or weed control at 250 g/ha [2]: 0% | plant injury at 250 g/ha (rice (Oryza sativa)): 0% | pest or weed control at 250 g/ha [3]: 0% | pest or weed control at 125 g/ha [4, 8]: 50% | pest or weed control at 500 g/ha ([4]; 500 g ai/ha, 0 to 100 scale): 60% | pest or weed control at 125 g/ha [5, 8]: 10% | pest or weed control at 500 g/ha ([5]; 500 g ai/ha, 0 to 100 scale): 40% | pest or weed control at 125 g/ha [6, 9]: 0% | pest or weed control at 500 g/ha [6, 10]: 0% | pest or weed control at 125 g/ha [6, 11]: 0% | pest or weed control at 500 g/ha [6, 12]: 0%

CC(=O)Oc1c(Cl)nn(C)c(=O)c1-c1c(C)sc2ccc(C(F)(F)F)cc12 [Compound 152]
Plant response rating, Sedge, Umbrella [1]: 0 | Plant response rating, Barnyardgrass [2]: 0 | Plant response rating, Rice (rice (Oryza sativa)): 0 | Plant response rating, Ducksalad [3]: 0 | Plant response rating, Galium [4, 13]: 60 | Plant response rating, Galium [4, 14]: 70 | Plant response rating, Blackgrass [5, 13]: 20 | Plant response rating, Blackgrass [5, 14]: 30 | Plant response rating, Barnyardgrass ([6]; Postemergence, 125 g ai/ha, 0 to 100 scale, 0 no effect, 100 complete control): 20 | Plant response rating, Barnyardgrass [6, 15]: 40 | Plant response rating, Barnyardgrass ([6]; Preemergence, 125 g ai/ha, visual injury rating, 0 to 100 scale (0 no effect, 100 complete control), approx. 10 d): 40 | Plant response rating, Barnyardgrass [6, 16]: 40

CCC(=O)Oc1c(OC)nn(C)c(=O)c1-c1c(C)sc2ccc(Cl)cc12 [Compound 131]
Plant response rating, Sedge, Umbrella [1]: 0 | Plant response rating, Barnyardgrass [2]: 0 | Plant response rating, Rice (rice (Oryza sativa)): 0 | Plant response rating, Ducksalad [3]: 0 | Plant response rating, Galium [4, 17]: 70 | Plant response rating, Galium [4, 14]: 100 | Plant response rating, Blackgrass [5, 17]: 30 | Plant response rating, Blackgrass [5, 14]: 50 | Plant response rating, Barnyardgrass [6, 18]: 0 | Plant response rating, Barnyardgrass [6, 15]: 20 | Barnyardgrass plant response rating [6, 19]: 0 | Plant response rating, Barnyardgrass [6, 16]: 40

Cc1nn(C)c(=O)c(-c2ccc(Cl)c3ccccc23)c1O [Compound 139]
Plant response rating, Kochia (kochia (Kochia scoparia); [20]): 95 | Kochia plant response rating (kochia (Kochia scoparia); [21]): 100 | Plant response rating, Kochia (kochia (Kochia scoparia); [22]): 100 | Kochia plant response rating (kochia (Kochia scoparia); [23]): 100 | Plant response rating, Oat, Wild [7, 20]: 90 | Oat, Wild plant response rating [7, 21]: 90 | Plant response rating, Oat, Wild [7, 22]: 90 | Oat, Wild plant response rating [7, 23]: 90 | Plant response rating, Sedge, Umbrella [1]: 0 | Plant response rating, Barnyardgrass [2]: 0 | Plant response rating, Rice (rice (Oryza sativa)): 0 | Plant response rating, Ducksalad [3]: 0 | Plant response rating, Galium [4, 17]: 100 | Plant response rating, Galium [4, 14]: 100 | Plant response rating, Blackgrass [5, 17]: 60 | Plant response rating, Blackgrass [5, 14]: 90 | Plant response rating, Barnyardgrass [6, 18]: 20 | Plant response rating, Barnyardgrass [6, 15]: 100 | Barnyardgrass plant response rating [6, 19]: 20 | Plant response rating, Barnyardgrass [6, 16]: 100

Cc1nn(C)c(=O)c(-c2c(C)oc3cccc(C)c23)c1O [Compound 8, 4-(2,4-dimethyl-3-benzofuranyl)-5-hydroxy-2,6-dimethyl-3(2H)-pyridazinone]
pest or weed control at 250 g/ha [1]: 70% | pest or weed control at 250 g/ha [2]: 30% | plant injury at 250 g/ha (rice (Oryza sativa)): 0% | pest or weed control at 250 g/ha [3]: 20% | pest or weed control at 125 g/ha [6, 9]: 0% | pest or weed control at 500 g/ha [6, 10]: 0% | pest or weed control at 125 g/ha [6, 11]: 0% | pest or weed control at 500 g/ha [6, 12]: 0%

COC(=O)Oc1c(OC)nn(C)c(=O)c1-c1c(C)ccc2ccccc12 [Compound 136]
Plant response rating, Kochia (kochia (Kochia scoparia); [20]): 95 | Kochia plant response rating (kochia (Kochia scoparia); [21]): 95 | Plant response rating, Kochia (kochia (Kochia scoparia); [22]): 100 | Kochia plant response rating (kochia (Kochia scoparia); [23]): 100 | Plant response rating, Oat, Wild [7, 20]: 50 | Oat, Wild plant response rating [7, 21]: 75 | Plant response rating, Oat, Wild [7, 22]: 90 | Oat, Wild plant response rating [7, 23]: 85 | Plant response rating, Sedge, Umbrella [1]: 0 | Plant response rating, Barnyardgrass [2]: 0 | Plant response rating, Rice (rice (Oryza sativa)): 0 | Plant response rating, Ducksalad [3]: 0 | Plant response rating, Galium [4, 17]: 100 | Plant response rating, Galium [4, 14]: 100 | Plant response rating, Blackgrass [5, 17]: 60 | Plant response rating, Blackgrass [5, 14]: 90 | Plant response rating, Barnyardgrass [6, 18]: 20 | Plant response rating, Barnyardgrass [6, 15]: 100 | Barnyardgrass plant response rating [6, 19]: 10 | Plant response rating, Barnyardgrass [6, 16]: 80

CC(=O)Oc1c(Cl)nn(C)c(=O)c1-c1c(C)sc2ccc(Cl)cc12 [Compound 116]
Plant response rating, Sedge, Umbrella [1]: 70 | Plant response rating, Barnyardgrass [2]: 0 | Plant response rating, Rice (rice (Oryza sativa)): 0 | Plant response rating, Ducksalad [3]: 50 | Plant response rating, Galium [4, 17]: 70 | Plant response rating, Galium [4, 14]: 100 | Plant response rating, Blackgrass [5, 17]: 30 | Plant response rating, Blackgrass [5, 14]: 70 | Plant response rating, Barnyardgrass [6, 18]: 20 | Plant response rating, Barnyardgrass [6, 15]: 90 | Barnyardgrass plant response rating [6, 19]: 70 | Plant response rating, Barnyardgrass [6, 16]: 100

Cc1cc(C)c2oc(C)c(-c3c(OC(=O)C(C)(C)C)c(C)nn(C)c3=O)c2c1 [Compound 18, 1,6-dihydro-1,3-dimethyl-6-oxo-5-(2,5,7-trimethyl-3-benzofuranyl)-4-pyridazinyl 2,2-dimethylpropanoate]
pest or weed control at 250 g/ha [1]: 0% | pest or weed control at 250 g/ha [2]: 0% | plant injury at 250 g/ha (rice (Oryza sativa)): 0% | pest or weed control at 250 g/ha [3]: 30% | pest or weed control at 125 g/ha [4, 8]: 40% | pest or weed control at 500 g/ha ([4]; 500 g ai/ha, 0 to 100 scale): 60% | pest or weed control at 125 g/ha [5, 8]: 0% | pest or weed control at 500 g/ha ([5]; 500 g ai/ha, 0 to 100 scale): 20% | pest or weed control at 125 g/ha [6, 9]: 0% | pest or weed control at 500 g/ha [6, 10]: 40% | pest or weed control at 125 g/ha [6, 11]: 0% | pest or weed control at 500 g/ha [6, 12]: 0%

Source: patent publication US10597388B2, “Pyridazinone herbicides” (FMC CORPORATION, priority 2014, dated 2020)
